Our source for the MIC values is DBAASP.

A word on the MIC: it is the lowest concentration found to suppress growth. Higher therefore signals weaker potency.

Common to all, as to experiment: ≥ marks a high value that may be exact or a test limit, other limits are often not marked, values filed in µg/mL are converted to µM
The subject of assay [1] is Escherichia coli ATCC 25726.
Assay [2] has as its system Staphylococcus aureus 127/08.
For assay [3], the system named is Staphylococcus aureus 274/08.
Assay [4] deals with Pseudomonas aeruginosa ATCC 27853.
Assay [5] deals with Staphylococcus aureus V4180.
Assay [6] relates to Klebsiella pneumoniae ATCC 700603.
Assay [7] concerns Staphylococcus aureus S908.
Assay [8] has as its system Staphylococcus aureus T4/6.
Assay [9] has as its system Escherichia coli ATCC 25922.
In assay [10] the test system is Staphylococcus aureus 145/08.
Assay [11] relates to Acinetobacter baumannii I NM8.
The test system of assay [12] is Staphylococcus aureus NCTC 8325.
For assay [13], the system named is Candida albicans ATCC 90028.
Assay [14] deals with Salmonella typhimurium.
The test system of assay [15] is Alcaligenes faecalis.
Assay [16] has as its system Klebsiella pneumoniae.
For assay [17], the system named is Enterococcus faecalis.
The subject of assay [18] is Bacillus megaterium.
In assay [19] the test system is Escherichia coli D22.
Assay [20] deals with Aerococcus viridans.
Assay [21] relates to Pectobacterium carotovorum subsp. carotovorum.
The subject of assay [22] is Staphylococcus aureus.
Assay [23] has as its system Escherichia coli D31.
Assay [24] concerns Micrococcus luteus.
Assay [25] has as its system Bacillus thuringiensis.
For assay [26], the system named is Escherichia coli 1106.
In assay [27] the test system is Staphylococcus aureus USA 300.
Assay [28] has as its system Burkholderia cepacia.
Assay [29] has as its system Enterobacter cloacae beta-12.
The subject of assay [30] is Serratia marcescens Db11.
The subject of assay [31] is Xanthomonas campestris pv. oryzae.
Assay [32] concerns Pseudomonas aeruginosa ATCC 82118.
Assay [33] deals with Bacillus subtilis QB935.
Assay [34] has as its system Escherichia coli K-12.
The subject of assay [35] is Staphylococcus aureus ATCC 6538.
The test system of assay [36] is Micrococcus luteus ATCC 9341.
The subject of assay [37] is Candida albicans ATCC 36232.
Assay [38] concerns Staphylococcus epidermidis AB208188.
In assay [39] the test system is Escherichia coli AB94012.
Assay [40] deals with Staphylococcus epidermidis AB208187.
The subject of assay [41] is Bacillus subtilis AB91021.
In assay [42] the test system is Staphylococcus aureus P1374.
Assay [43] relates to Micrococcus luteus AB93113.
The subject of assay [44] is Staphylococcus aureus ATCC 25923.
Assay [45] concerns Staphylococcus aureus AB94004.
The subject of assay [46] is Staphylococcus aureus P1381.
The subject of assay [47] is Staphylococcus aureus P1389.
The subject of assay [48] is Staphylococcus aureus AB208193.
In assay [49] the test system is Bacillus thuringiensis AB92037.
The subject of assay [50] is Pseudomonas aeruginosa ATCC 9027.

Converted amounts (≈) assume the structure as drawn. “And” between values parts separate entries of the source, which are not always exact repeats. Equal entries are not always repeated.

On to `CC(C)C[C@H](NC(=O)[C@H](CC(C)C)NC(=O)[C@H](CC(N)=O)NC(=O)[C@H](CO)NC(=O)CNC(=O)[C@@H](NC(=O)[C@H](CCCCN)NC(=O)[C@H](CC(C)C)NC(=O)CNC(=O)[C@@H](NC(=O)[C@H](CCCCN)NC(=O)[C@H](CC(C)C)NC(=O)[C@H](CC(C)C)NC(=O)[C@H](CO)NC(=O)CNC(=O)[C@H](CC(C)C)NC(=O)[C@H](Cc1ccccc1)NC(=O)CN)[C@@H](C)O)C(C)C)C(N)=O` [GFLGSLLKTGLKVGSNLL], for which the MIC in [1] is at least 50 µM; in [2] it was 5 µM (≈ 9.08 µg/mL); in assay [3], 5 µM (≈ 9.08 µg/mL); in assay [4] it was 50 µM (≈ 90.8 µg/mL); in assay [5] it was 5 µM (≈ 9.08 µg/mL); in assay [6] it was 50 µM (≈ 90.8 µg/mL). Further, the minimal inhibitory concentration (MIC) was 5 µM (≈ 9.08 µg/mL) in assay [7]; 5 µM (≈ 9.08 µg/mL) in [8]; 50 µM (≈ 90.8 µg/mL) in [9]; 5 µM (≈ 9.08 µg/mL) in assay [10]; 6 µM (≈ 10.9 µg/mL) in [11]; at least 80 µM in [12]. This compound also displayed a minimal inhibitory concentration (MIC) in [13] of at least 100 µM.

For `CSCC[C@H](NC(=O)[C@H](CC(N)=O)NC(=O)[C@@H]1CCCN1C(=O)[C@@H]1CCCN1C(=O)[C@H](CCCNC(=N)N)NC(=O)[C@@H]1CCCN1C(=O)[C@H](CCCNC(=N)N)NC(=O)[C@@H]1CCCN1C(=O)[C@H](CCCNC(=N)N)NC(=O)[C@H](Cc1ccc(O)cc1)NC(=O)[C@H](CC(=O)O)NC(=O)[C@@H]1CCCN1C(=O)[C@H](CCCCN)NC(=O)[C@H](CC(=O)O)NC(=O)[C@@H](N)C(C)C)C(=O)O` [VDKPDYRPRPRPPNM], the MIC in assay [14] was at least 70.7 µM; in assay [15], at least 70.7 µM; in assay [16], above 200 µM; in assay [17], at least 200 µM; in [18] it was at least 200 µM; in assay [19], at least 70.7 µM. For the same compound, the minimal inhibitory concentration (MIC) in [20] was at least 200 µM; in assay [21], at least 200 µM; in [22], above 200 µM; in assay [23] it was at least 141 µM; in [24], at least 200 µM; in [25], at least 200 µM. For the same compound, the MIC was at least 141 µM in assay [26]; at least 100 µM in assay [27]; at least 100 µM in assay [28]; at least 141 µM in assay [29]; at least 200 µM in [30]; at least 141 µM in assay [31]. In addition, the figures for the minimum inhibitory concentration (MIC) in assay [32], in [33] and in assay [34] were at least 200 µM, at least 200 µM and at least 100 µM, respectively.

For the compound `CC(C)[C@H](NC(=O)[C@H](CCCCN)NC(=O)[C@H](Cc1ccccc1)NC(=O)[C@@H](NC(=O)[C@@H](NC(=O)[C@H](CCCCN)NC(=O)[C@H](CCCCN)NC(=O)[C@@H](N)CCCCN)C(C)C)C(C)C)C(=O)N[C@@H](CCCCN)C(=O)N[C@@H](Cc1ccccc1)C(=O)N[C@@H](CCCCN)C(N)=O` [KKKVVFKVKFK], the MIC in assay [35] is 2.27 µM (≈ 3.13 µg/mL); in [36], 2.27 µM (≈ 3.13 µg/mL); in [37], 9.07 µM and 3.21 µM and 4.53 µM.

Consider `CC[C@H](C)[C@H](NC(=O)[C@H](CCCCN)NC(=O)[C@@H](NC(=O)[C@H](C)NC(=O)[C@H](CC(C)C)NC(=O)[C@H](CCCCN)NC(=O)[C@H](Cc1ccccc1)NC(=O)[C@H](CC(C)C)NC(=O)[C@H](Cc1cnc[nH]1)NC(=O)CNC(=O)[C@H](Cc1ccccc1)NC(=O)[C@@H](N)Cc1ccccc1)[C@@H](C)O)C(=O)N[C@H](C(=O)N1CCC[C@H]1C(=O)N[C@@H](CO)C(=O)N[C@@H](CC(C)C)C(=O)N[C@@H](Cc1ccccc1)C(=O)N[C@@H](CCC(N)=O)C(=O)O)[C@@H](C)CC` [FFGHLFKLATKIIPSLFQ], for which the MIC in [38] stood at 1.5 µM (≈ 3.16 µg/mL); in assay [39], 23.7 µM (≈ 49.9 µg/mL); in [40], 3 µM (≈ 6.32 µg/mL); in assay [41], 3 µM (≈ 6.32 µg/mL); in [35] it was 1.5 µM (≈ 3.16 µg/mL); in assay [42], 3 µM (≈ 6.32 µg/mL). The MIC in assay [43] is at least 47.5 µM; in assay [44], 3 µM (≈ 6.32 µg/mL); in [45], 1.5 µM (≈ 3.16 µg/mL); in assay [46] it was 1.5 µM (≈ 3.16 µg/mL); in assay [47], 3 µM (≈ 6.32 µg/mL); in assay [48] it was 3 µM (≈ 6.32 µg/mL). Also, the minimum inhibitory concentration (MIC) in assay [9] amounted to 11.9 µM (≈ 25.1 µg/mL); in assay [49], 3 µM (≈ 6.32 µg/mL); in assay [50], 11.9 µM (≈ 25.1 µg/mL).
